We go through 15 compounds from USRE47689E1, “Compounds for treating spinal muscular atrophy” (PTC Therapeutics, Inc., priority 2011, dated 2019).

Where a name gives a salt, the structure may show the parent alone.

Test [1] concerns SMN2 minigene (full length SMN2 minigene mRNA containing SMN2 exon 7). Kind of test: SMN2 minigene mRNA splicing RT-qPCR assay in cultured cells. The class given is cell-based, human. Particulars: Homo sapiens, HEK293-H; HEK293H cells stably transfected with SMN2-A minigene; 24 hours; 7-point concentration curve; 1.5-fold relative to vehicle-treated cells; read-out: EC1.5x for production of full length SMN2 mRNA. As for the experimental part: The reverse transcription-quantitative PCR-based (RT-qPCR) assay is used to quantify the level of the full length SMN2 minigene mRNA containing SMN2 exon 7 in a HEK293H cell line stably transfected with said minigene and treated with a test compound.
Protocol. HEK293H cells stably transfected with the SMN2-A minigene construct described above (10,000 cells/well) are seeded in 200 μL of cell culture medium (DMEM plus 10% FBS, with 200 μg/mL hygromycin) in 96-well flat-bottom plates and the plate is immediately swirled to ensure proper dispersal of cells, forming an even monolayer of cells. Cells are allowed to attach for at least 4-6 hours. […] A solution of test compound (1 μL, 200× in DMSO) is added to each cell-containing well and the plate is incubated for 24 hours in a cell culture incubator (37° C., 5% CO2, 100% relative humidity). 2 replicates are prepared for each test compound concentration. The cells are then lysed in Cells-To-Ct lysis buffer and the lysate is stored at −80° C.
The combination of these three oligonucleotides detects only SMN1 or SMN2 minigenes (RT-qPCR) and will not detect endogenous SMN1 or SMN2 genes.
The SMN forward and reverse primers are used at final concentrations of 0.4 μM.
The SMN2-minigene GAPDH mix (15 μL total volume) is prepared by combining 7.5 μL of 2×RT-PCR buffer, 0.4 μL of 25×RT-PCR enzyme mix, 0.75 μL of 20×GAPDH primer-probe mix, 4.0075 μL of water, 2 μL of 10-fold diluted cell lysate, 0.06 μL of 100 μM SMN forward primer, 0.06 μL of 100 μM SMN reverse primer, and 0.225 μL of 100 μM SMN probe.
PCR is carried out at the following temperatures for the indicated time: Step 1: 48° C. (15 min); Step 2: 95° C. (10 min); Step 3: 95° C. (15 sec); Step 4: 60° C. (1 min); then repeat Steps 3 and 4 for a total of 40 cycles.
Each reaction mixture contains both SMN2-A minigene and GAPDH primers/probe sets (multiplex design), allowing simultaneous measurement of the levels of two transcripts.
Two SMN spliced products are generated from the SMN2 minigene. The first spliced product containing exon 7, corresponding to full length SMN2 mRNA, is called SMN2mini FL. The second one lacking exon 7 is called SMN2mini Δ7.
The amplification efficiency E is calculated from the slope of the amplification curve for SMN2mini FL and GAPDH individually. The abundances of SMN2mini FL and GAPDH are then calculated as […], where Ct is the threshold value for each amplicon. The abundance of SMN2mini FL is normalized to GAPDH abundance. The normalized SMN2mini FL abundance from test compound-treated samples is then divided by normalized SMN2mini FL abundance from vehicle-treated cells to determine the level of SMN2 FL mRNA relative to vehicle control.
An EC1.5x for production of full length SMN2 mRNA between >3 μM and ≤30 μM is indicated by one star (*), an EC1.5x between >1 μM and ≤3 μM is indicated by two stars (**), an EC1.5x between >0.3 μM and ≤1 μM is indicated by three stars (***), an EC1.5x between >0.1 μM and ≤0.3 μM is indicated by four stars (****) and an EC1.5x≤0.1 μM is indicated by five stars (*****).

Another test deals with Smn protein. Kind of test: Smn protein assay in cultured cells (SMN HTRF). The class given is cell-based, human. To be noted: 48 hours; for EC1.5x (concentration giving 1.5-fold Smn protein increase): SMA Type 1 patient fibroblast cells (GM03813), 7-point concentration curve, SMN HTRF, concentration producing 1.5 times Smn protein vs DMSO vehicle control, read-out: EC1.5x for Smn protein expression; for maximum fold (Fold) increase of Smn protein: SMA patient fibroblast cells, 7-point concentration data, fold increase relative to vehicle control (SMN HTRF). As for the experimental part: The SMN HTRF (homogeneous time resolved fluorescence) assay is used to quantify the level of Smn protein in SMA patient fibroblast cells treated with test compounds.
Protocol. Cells are thawed and cultured in DMEM-10% FBS for 72 hours. Cells are trypsinized, counted and resuspended to a concentration of 25,000 cells/mL in DMEM-10% FBS. […] 1 μL of test compound solution is transferred to cell-containing wells and cells are incubated for 48 hours in a cell culture incubator (37° C., 5% CO2, 100% relative humidity). Triplicate samples are set up for each test compound concentration. After 48 hours, the supernatant is removed from the wells and 25 μL of the RIPA lysis buffer, containing protease inhibitors, is added to the wells and incubated with shaking at room temperature for 1 hour. 25 μL of the diluent is added and then 35 μL of the resulting lysate is transferred to a 384-well plate, where each well contains 5 μL of the antibody solution (1:100 dilution of anti-SMN d2 and anti-SMN kryptate in SMN reconstitution buffer). The plate is centrifuged for 1 minute to bring the solution to the bottom of the wells, then incubated overnight at room temperature. Fluorescence for each well of the plate at 665 nm and 620 nm is measured on an EnVision multilabel plate reader (Perkin-Elmer).
The normalized fluorescence signal is calculated for each sample, Blank and vehicle control well by dividing the signal at 665 nm by the signal at 620 nm. Normalizing the signal accounts for possible fluorescence quenching due to the matrix effect of the lysate. The ΔF value (a measurement of Smn protein abundance) for each sample well is calculated by subtracting the normalized average fluorescence for the Blank control wells from the normalized fluorescence for each sample well and then dividing this difference by the normalized average fluorescence for the Blank control wells. The resulting ΔF value for each sample well represents the Smn protein abundance from test compound-treated samples. The ΔF value for each sample well is divided by the ΔF value for the vehicle control wells to calculate the fold increase in Smn protein abundance relative to the vehicle control.
An EC1.5x for Smn protein expression between >3 μM and ≤10 μM is indicated by one star (*), an EC1.5x between >1 and ≤3 μM is indicated by two stars (**), an EC1.5x between >0.3 μM and ≤1 μM is indicated by three stars (***) and an EC1.5x≤0.3 μM is indicated by four stars (****).
Background: Time-resolved FRET reads energy transfer from a long-lived donor to a nearby acceptor.

For the compound `Cc1cn2cc(-c3cc4ccc(N5CCN(C6CC6)CC5)cc4oc3=O)cc2c(C)n1` [Compound 752, 7-(4-cyclopropylpiperazin-1-yl)-3-(1,3-dimethylpyrrolo[1,2-a]pyrazin-7-yl)-2H-chromen-2-one], the EC (1.5-fold) in test [1] was < 0.1 µM. In the test on Smn protein, the EC1.5x (concentration giving 1.5-fold Smn protein increase) was in the range of 300 to 1000 nM; the “maximum fold (Fold) increase of Smn protein” value (“maximum fold (Fold) increase” below) was “**** (fold increase between >1.5 and ≤1.65)”.
Turning to `COc1ccc(-c2cc3ccc(N4CCNC[C@@H]4C)cc3oc2=O)cc1OC` [Compound 472, 3-(3,4-dimethoxyphenyl)-7-[(2S)-2-methylpiperazin-1-yl]-2H-chromen-2-one], the EC (1.5-fold) in test [1] lay in the range of 1 to 3 µM. In the test with Smn protein, the “maximum fold (Fold) increase” value was “* (maximum fold increase of ≤1.2)”.
In the case of `Cl.O=c1oc2cc(C3CCNCC3)ccc2cc1-c1nc2c(Cl)cccc2s1` [Cpd 18, 3-(4-chloro-1,3-benzothiazol-2-yl)-7-(piperidin-4-yl)-2H-chromen-2-one hydrochloride], in test [1], the EC (1.5-fold) is 0.3 to 1 µM. Also, the “maximum fold (Fold) increase” value in the test on Smn protein is recorded as “* (maximum fold increase of ≤1.2)”.
For the compound `Cc1cn2cc(-c3cc4ccc(N5CCC6(CC5)CNC6)cc4oc3=O)nc2c(C)n1` [Compound 976, 7-(2,7-diazaspiro[3.5]non-7-yl)-3-(6,8-dimethylimidazo[1,2-a]pyrazin-2-yl)-2H-chromen-2-one], the EC (1.5-fold) in test [1] was < 0.1 µM. Moreover, in the test with Smn protein, the EC1.5x (concentration giving 1.5-fold Smn protein increase) lay within 1000 to 3000 nM; the “maximum fold (Fold) increase” value was “*** (fold increase between >1.35 and ≤1.5)”.
In the case of `Cc1cn2cc(-c3cc4ccc(N5CCN[C@@H](C)C5)cc4oc3=O)nc2cn1` [Compound 569, 3-(6-methylimidazo[1,2-a]pyrazin-2-yl)-7-[(3S)-3-methylpiperazin-1-yl]-2H-chromen-2-one], the EC (1.5-fold) in test [1] is < 0.1 µM. In addition, in the test with Smn protein, the EC1.5x (concentration giving 1.5-fold Smn protein increase) was < 300 nM and the “maximum fold (Fold) increase” value is recorded as “***** (fold increase >1.65)”.
As to `Cc1cc2sc(-c3cc4ccc(N5CCN(C)CC5)cc4oc3=O)cc2c(C)n1` [Compound 819, 3-(4,6-dimethylthieno[3,2-c]pyridin-2-yl)-7-(4-methylpiperazin-1-yl)-2H-chromen-2-one], in test [1], the EC (1.5-fold) was < 0.1 µM. In addition, the “maximum fold (Fold) increase” value in the test with Smn protein is “*** (fold increase between >1.35 and ≤1.5)”.
Turning to `Cc1cn2cc(-c3cc4ccc(N5CCN6C(=O)CCC6C5)cc4oc3=O)nc2c(C)n1` (stereo not drawn) [Compound 973, 2-[3-(6,8-dimethylimidazo[1,2-a]pyrazin-2-yl)-2-oxo-2H-chromen-7-yl]hexahydropyrrolo[1,2-a]pyrazin-6(2H)-one], the EC (1.5-fold) in test [1] was in the range of 3 to 30 µM. In addition, the “maximum fold (Fold) increase” value in the test on Smn protein is “* (maximum fold increase of ≤1.2)”.
The matching figures for `CN1CCN(c2ccc3cc(-c4ccnc(C5CC5)n4)c(=O)oc3c2)CC1` [Compound 298, 3-(2-cyclopropylpyrimidin-4-yl)-7-(4-methylpiperazin-1-yl)-2H-chromen-2-one]: 1 to 3 µM and “* (maximum fold increase of ≤1.2)”.
As for `COCCN1CCN(c2ccc3cc(-c4cc5c(C)nc(C)cc5s4)c(=O)oc3c2)CC1` [Compound 820, 3-(4,6-dimethylthieno[3,2-c]pyridin-2-yl)-7-[4-(2-methoxyethyl)piperazin-1-yl]-2H-chromen-2-one], the EC (1.5-fold) in test [1] lay in the range of 0.3 to 1 µM. Further, the “maximum fold (Fold) increase” value with Smn protein was “** (fold increase between >1.2 and ≤1.35)”.
On to `Cc1cn2cc(-c3cc4ccc(N5CCC(N)CC5)cc4oc3=O)cc2c(C)n1` [Compound 714, 7-(4-aminopiperidin-1-yl)-3-(1,3-dimethylpyrrolo[1,2-a]pyrazin-7-yl)-2H-chromen-2-one], for which, in test [1], the EC (1.5-fold) lay within 0.1 to 0.3 µM. Also, the “maximum fold (Fold) increase” value with Smn protein was “* (maximum fold increase of ≤1.2)”.
Take `Cc1nc2ccc(-c3cc4ccc(C5=CCNCC5)cc4oc3=O)nn2c1C1=CCNCC1` [Cpd 845, 3-[2-methyl-3-(1,2,3,6-tetrahydropyridin-4-yl)imidazo[1,2-b]pyridazin-6-yl]-7-(1,2,3,6-tetrahydropyridin-4-yl)-2H-chromen-2-one]: in the test with Smn protein, the “maximum fold (Fold) increase” value is “* (maximum fold increase of ≤1.2)”.
With `Cc1nccn2cc(-c3cc4ccc(N5CCN[C@@H](C)C5)cc4oc3=O)nc12` [Compound 573, 3-(8-methylimidazo[1,2-a]pyrazin-2-yl)-7-[(3S)-3-methylpiperazin-1-yl]-2H-chromen-2-one], the EC (1.5-fold) in test [1] lay in the range of 0.3 to 1 µM. In the test on Smn protein, the EC1.5x (concentration giving 1.5-fold Smn protein increase) was < 300 nM; the “maximum fold (Fold) increase” value was “**** (fold increase between >1.5 and ≤1.65)”.
In the case of `O=c1oc2cc(N3C[C@@H]4C[C@H]3CN4)ccc2cc1-c1cn2cccnc2n1` [Compound 129, 7-[(1S,4S)-2,5-diazabicyclo[2.2.1]hept-2-yl]-3-(imidazo[1,2a]pyrimidin-2-yl)-2H-chromen-2-one hydrochloride (1:3)], the EC (1.5-fold) in test [1] is 0.3 to 1 µM. In the test on Smn protein, the “maximum fold (Fold) increase” value was “** (fold increase between >1.2 and ≤1.35)”.
For `CSc1nccn2cc(-c3cc4ccc(N5CCN(C)CC5)cc4oc3=O)nc12` [Compound 399, 7-(4-methylpiperazin-1-yl)-3-[8-(methylsulfanyl)imidazo[1,2-a]pyrazin-2-yl]-2H-chromen-2-one], the EC (1.5-fold) in test [1] is 3 to 30 µM. The “maximum fold (Fold) increase” value in the test with Smn protein is “* (maximum fold increase of ≤1.2)”.
As to `C[C@@H]1CN(c2ccc3cc(-c4cn5ccccc5n4)c(=O)oc3c2)C[C@H](C)N1C` [Compound 140, 3-(imidazo[1,2-a]pyridin-2-yl)-7-[(3R,5S)-3,4,5-trimethylpiperazin-1-yl]-2H-chromen-2-one], in test [1], the EC (1.5-fold) lay within 0.3 to 1 µM. Besides, the “maximum fold (Fold) increase” value in the test on Smn protein was “** (fold increase between >1.2 and ≤1.35)”.
